For test [1], the target named is T1, ERα (Homo sapiens, UniProt P03372).
T1 sequence (P03372 1-595): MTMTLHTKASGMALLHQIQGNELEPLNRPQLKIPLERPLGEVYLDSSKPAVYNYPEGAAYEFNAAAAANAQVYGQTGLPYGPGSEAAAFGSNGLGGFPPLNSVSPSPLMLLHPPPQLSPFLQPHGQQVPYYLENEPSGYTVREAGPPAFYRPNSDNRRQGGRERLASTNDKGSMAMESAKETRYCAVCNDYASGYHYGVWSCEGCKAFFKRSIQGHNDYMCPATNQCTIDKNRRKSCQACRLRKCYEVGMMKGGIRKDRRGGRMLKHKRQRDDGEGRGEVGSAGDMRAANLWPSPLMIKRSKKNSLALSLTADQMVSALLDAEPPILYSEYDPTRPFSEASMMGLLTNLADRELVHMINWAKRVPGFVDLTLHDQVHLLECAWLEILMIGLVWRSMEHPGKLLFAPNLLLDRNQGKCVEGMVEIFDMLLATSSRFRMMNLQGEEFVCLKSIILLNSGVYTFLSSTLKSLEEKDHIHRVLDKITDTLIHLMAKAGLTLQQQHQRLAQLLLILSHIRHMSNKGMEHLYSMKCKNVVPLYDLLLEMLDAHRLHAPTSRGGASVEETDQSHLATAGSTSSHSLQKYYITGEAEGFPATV
Description: ERα reporter (luciferase) transactivation assay in transfected HEK293 cells. In kind it is cell-based. The arrangement: expressed in transfected cells; host or cells: HEK293. Particulars: sample concentration 10 μM, 24 hours, mean of at least three independent transfections. The method, then: (§1) Determination of the Estrogen Activity of the Compounds: Cell Culture, Transfection and Reporter Assays
(§2) All other reagents were of reagent grade from Sigma or Fluka. One day before transfection, HEK293 cells were seeded in 48-well plates (70×10^3 cells per well) in phenol-free Dulbecco's modified Eagle medium supplemented with 5% delipidated fetal bovine serum (Sigma) and antibiotics. After a medium change, the cells were transfected for 4 hours with 5 ng ERα or ERβ expression vector, 75 ng reporter plasmid pERE2TATA-LUC and 20 ng control plasmid pCMVβ by the calcium phosphate method. After transfection, the cells received fresh medium containing either vehicle (0.1% v/v) or test compound (10 μM). After 24 hours, the cells were washed, lysed and luciferase and β-galactosidase activities were determined from 20 μl of lysates with the Victor^2TM reader (PerkinElmer Wallac, Turku, Finland). […] The data are means ±SEM of at least three independent transfections.

The target of test [2] is ERβ (Homo sapiens, UniProt Q92731). The experiment in a line: ERβ reporter (luciferase) transactivation assay in transfected HEK293 cells. Particulars: for ERβ receptor activation relative to 10 nM E2 corresponding 100: sample concentration 10 μM, 24 hours, mean of at least three independent transfections; for activation at 10 µM: HEK293, 24 h, read-out: ERβ receptor activation relative to 10 nM E2 corresponding 100, sample concentration 10 μM, mean of at least three independent transfections. The arrangement: expressed in transfected cells; host or cells: HEK293. In kind it is cell-based. The method, then: as §1, §2

Structures are written as SMILES.

We go through 25 compounds from patent publication US20100267784A1, “NOVEL 4,5-DIHYDROISOXAZOLES WITH ESTROGENIC ACTIVITY” (priority 2007, published 2010).

ERβ, sequence (Q92731 whole entry): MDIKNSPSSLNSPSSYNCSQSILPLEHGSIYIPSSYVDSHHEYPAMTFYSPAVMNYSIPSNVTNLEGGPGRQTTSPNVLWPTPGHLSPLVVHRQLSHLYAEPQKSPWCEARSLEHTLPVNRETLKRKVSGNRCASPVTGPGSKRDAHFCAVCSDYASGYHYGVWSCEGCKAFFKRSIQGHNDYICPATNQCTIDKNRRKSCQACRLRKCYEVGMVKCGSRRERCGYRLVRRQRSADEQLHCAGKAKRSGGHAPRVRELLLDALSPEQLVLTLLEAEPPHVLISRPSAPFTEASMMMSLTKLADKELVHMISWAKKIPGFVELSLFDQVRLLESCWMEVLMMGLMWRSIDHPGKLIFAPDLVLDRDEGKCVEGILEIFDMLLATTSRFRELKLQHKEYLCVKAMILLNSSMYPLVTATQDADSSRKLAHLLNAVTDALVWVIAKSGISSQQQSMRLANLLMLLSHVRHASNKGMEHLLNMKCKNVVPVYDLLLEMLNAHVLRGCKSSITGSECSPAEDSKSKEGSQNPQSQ

For the compound `Oc1ccc(CC2CC(CCc3ccccc3)=NO2)cc1` (single isomer, unassigned) [94a, 5-(4-Hydroxy-benzyl)-3-phenethyl-4,5-dihydro-isoxazole], in test [1], the “ERα receptor activation relative to 10 nM E2 corresponding 100” value is reported as 34.2%. In addition, the “ERβ receptor activation relative to 10 nM E2 corresponding 100” value in test [2] amounted to 9.1%.
Taken in the same sequence, the figures for `Oc1ccc(CC2CC(CCc3ccccc3)=NO2)cc1` (single isomer, unassigned) [94b, 5-(4-Hydroxy-benzyl)-3-phenethyl-4,5-dihydro-isoxazole] were 105.2% and 42.4%.
The corresponding values for `Oc1ccc(CC2CC(CCc3ccccc3O)=NO2)cc1` (single isomer, unassigned) [95a, 5-(4-Hydroxy-benzyl)-3-[2-(2-hydroxy-phenyl)-ethyl]-4,5-dihydro-isoxazole] are 20.4% and 2.4%.
Regarding `Oc1ccc(CC2CC(CCc3ccccc3O)=NO2)cc1` (single isomer, unassigned) [95b, 5-(4-Hydroxy-benzyl)-3-[2-(2-hydroxy-phenyl)-ethyl]-4,5-dihydro-isoxazole], the “ERα receptor activation relative to 10 nM E2 corresponding 100” value in test [1] turned out to be 6.2%. The “ERβ receptor activation relative to 10 nM E2 corresponding 100” value in test [2] was found to be 0.6%.
The corresponding values for `Oc1ccc(CCC2=NOC(Cc3ccc(O)cc3)C2)cc1` (single isomer, unassigned) [96a, 5-(4-Hydroxy-benzyl)-3-[2-(4-hydroxy-phenyl)-ethyl]-4,5-dihydro-isoxazole] are 76.2% and 12.0%.
Consider `Oc1ccc(CCC2=NOC(Cc3ccc(O)cc3)C2)cc1` (single isomer, unassigned) [96b, 5-(4-Hydroxy-benzyl)-3-[2-(4-hydroxy-phenyl)-ethyl]-4,5-dihydro-isoxazole], for which the “ERα receptor activation relative to 10 nM E2 corresponding 100” value in test [1] is reported as 81.4%. The “ERβ receptor activation relative to 10 nM E2 corresponding 100” value in test [2] came to 4.1%.
The corresponding values for `Oc1ccccc1CCC1=NOC(Cc2ccc(F)cc2)C1` (single isomer, unassigned) [97a, 5-(4-Fluoro-benzyl)-3-[2-(2-hydroxy-phenyl)-ethyl]-4,5-dihydro-isoxazole] are 82.0% and 3.4%.
With `Oc1ccccc1CCC1=NOC(Cc2ccc(F)cc2)C1` (single isomer, unassigned) [97b, 5-(4-Fluoro-benzyl)-3-[2-(2-hydroxy-phenyl)-ethyl]-4,5-dihydro-isoxazole], the “ERα receptor activation relative to 10 nM E2 corresponding 100” value in test [1] came out at 11.1%. The “ERβ receptor activation relative to 10 nM E2 corresponding 100” value in test [2] is −2.4%.
With `Oc1ccc(CCC2=NOC(Cc3ccc(F)cc3)C2)cc1` (single isomer, unassigned) [98a, 5-(4-Fluoro-benzyl)-3-[2-(4-hydroxy-phenyl)-ethyl]-4,5-dihydro-isoxazole], the “ERα receptor activation relative to 10 nM E2 corresponding 100” value in test [1] was 77.8%. For the same compound, the “ERβ receptor activation relative to 10 nM E2 corresponding 100” value in test [2] came to 28.4%.
The corresponding values for `Oc1ccc(CCC2=NOC(Cc3ccc(F)cc3)C2)cc1` (single isomer, unassigned) [98b, 5-(4-Fluoro-benzyl)-3-[2-(4-hydroxy-phenyl)-ethyl]-4,5-dihydro-isoxazole] are 5.7% and 4.4%.
The corresponding values for `Oc1ccc(CCCC2=NOC(Cc3ccccc3)C2)cc1` (single isomer, unassigned) [99a, 5-Benzyl-3-[3-(4-hydroxy-phenyl)-propyl]-4,5-dihydro-isoxazole] are 153.7% and 78.2%.
Turning to `Oc1ccc(CCCC2=NOC(Cc3ccccc3)C2)cc1` (single isomer, unassigned) [99b, 5-Benzyl-3-[3-(4-hydroxy-phenyl)-propyl]-4,5-dihydro-isoxazole], the “ERα receptor activation relative to 10 nM E2 corresponding 100” value in test [1] came out at 75.1%. Also, the “ERβ receptor activation relative to 10 nM E2 corresponding 100” value in test [2] is listed as 19.8%.
Taken in the same sequence, the figures for `Oc1ccc(CC2CC(CCCc3ccccc3)=NO2)cc1` (single isomer, unassigned) [100a, 5-(4-Hydroxy-benzyl)-3-(3-phenyl-propyl)-4,5-dihydro-isoxazole] were 67.1% and 4.7%.
Consider `Oc1ccc(CC2CC(CCCc3ccccc3)=NO2)cc1` (single isomer, unassigned) [100b, 5-(4-Hydroxy-benzyl)-3-(3-phenyl-propyl)-4,5-dihydro-isoxazole], for which the “ERα receptor activation relative to 10 nM E2 corresponding 100” value in test [1] came out at 97.2%. Further, the “ERβ receptor activation relative to 10 nM E2 corresponding 100” value in test [2] is 17.0%.
In the case of `Oc1ccc(CCCC2=NOC(Cc3ccc(O)cc3)C2)cc1` (single isomer, unassigned) [101a, 5-(4-Hydroxy-benzyl)-3-[3-(4-hydroxy-phenyl)-propyl]-4,5-dihydro-isoxazole], in test [1], the “ERα receptor activation relative to 10 nM E2 corresponding 100” value came to 14.4%. Moreover, the “ERβ receptor activation relative to 10 nM E2 corresponding 100” value in test [2] was −0.9%.
As to `Oc1ccc(CCCC2=NOC(Cc3ccc(O)cc3)C2)cc1` (single isomer, unassigned) [101b, 5-(4-Hydroxy-benzyl)-3-[3-(4-hydroxy-phenyl)-propyl]-4,5-dihydro-isoxazole], the “ERα receptor activation relative to 10 nM E2 corresponding 100” value in test [1] came out at 13.6%. Besides, in test [2], the “ERβ receptor activation relative to 10 nM E2 corresponding 100” value stood at 10.6%.
Taken in the same sequence, the figures for `Oc1ccc(CC2CC(CCCc3ccc(O)c(O)c3)=NO2)cc1` (single isomer, unassigned) [103a, 3-[3-(3,4-Dihydroxy-phenyl)-propyl]-5-(4-hydroxy-benzyl)-4,5-dihydro-isoxazole] were 1.7% and −1.1%.
For `Oc1ccc(CC2CC(CCCc3ccc(O)c(O)c3)=NO2)cc1` (single isomer, unassigned) [103b, 3-[3-(3,4-Dihydroxy-phenyl)-propyl]-5-(4-hydroxy-benzyl)-4,5-dihydro-isoxazole], the “ERα receptor activation relative to 10 nM E2 corresponding 100” value in test [1] amounted to 1.4%. For the same compound, in test [2], the “ERβ receptor activation relative to 10 nM E2 corresponding 100” value is reported as −0.7%.
For `Oc1ccccc1CCC1=NOC(CCc2ccccc2)C1` (single isomer, unassigned) [104a, 3[2-(2-Hydroxy-phenyl)-ethyl]-5-phenethyl-4,5-dihydro-isoxazole], in test [1], the “ERα receptor activation relative to 10 nM E2 corresponding 100” value is 4.5%. Further, in test [2], the activation at 10 µM is 4.2%.
In the case of `Oc1ccccc1CCC1=NOC(CCc2ccccc2)C1` (single isomer, unassigned) [104b, 3[2-(2-Hydroxy-phenyl)-ethyl]-5-phenethyl-4,5-dihydro-isoxazole], the “ERα receptor activation relative to 10 nM E2 corresponding 100” value in test [1] is given as 21.8%. The “ERβ receptor activation relative to 10 nM E2 corresponding 100” value in test [2] is recorded as 2.6%.
In the case of `Oc1cccc(CCC2=NOC(CCc3ccccc3)C2)c1` (single isomer, unassigned) [105a, 3-[2-(3-Hydroxy-phenyl)-ethyl]-5-phenethyl-4,5-dihydro-isoxazole], the “ERα receptor activation relative to 10 nM E2 corresponding 100” value in test [1] was 8.3%. The activation at 10 µM in test [2] was 2.6%.
Regarding `Oc1cccc(CCC2=NOC(CCc3ccccc3)C2)c1` (single isomer, unassigned) [105b, 3-[2-(3-Hydroxy-phenyl)-ethyl]-5-phenethyl-4,5-dihydro-isoxazole], the “ERα receptor activation relative to 10 nM E2 corresponding 100” value in test [1] is 3.0%. Besides, the “ERβ receptor activation relative to 10 nM E2 corresponding 100” value in test [2] amounted to 3.6%.
The corresponding values for `Oc1ccc(CCC2=NOC(CCc3ccccc3)C2)cc1` (single isomer, unassigned) [106a, 3-[2-(4-Hydroxy-phenyl)-ethyl]-5-phenethyl-4,5-dihydro-isoxazole] are 62.8% and 15.4%.
Take `Oc1ccc(CCC2=NOC(CCc3ccccc3)C2)cc1` (single isomer, unassigned) [106b, 3-[2-(4-Hydroxy-phenyl)-ethyl]-5-phenethyl-4,5-dihydro-isoxazole]: the “ERα receptor activation relative to 10 nM E2 corresponding 100” value in test [1] was determined as 15.8%. Also, in test [2], the “ERβ receptor activation relative to 10 nM E2 corresponding 100” value turned out to be 0.8%.
`c1ccc(CC2CC(c3ccccc3)=NO2)cc1` (single isomer, unassigned) [107a, 5-Benzyl-3-phenyl-4,5-dihydroisoxazole]: the “ERα receptor activation relative to 10 nM E2 corresponding 100” value in test [1] is recorded as −1.0%. For the same compound, the activation at 10 µM in test [2] was 6.6%.
